Results published in patent publication US20190008804A1 (Repros Therapeutics Inc., priority 2016, published 2019).
Where two headings read alike, the source gives them in different places.

Key:
[1] = target: T1, ERβ (Homo sapiens, UniProt Q92731); experiment: ERβ coactivator response; assay type: biochemical; parameters: concentration or dose not given beside the values
Target sequence in this assay (Q92731 whole entry): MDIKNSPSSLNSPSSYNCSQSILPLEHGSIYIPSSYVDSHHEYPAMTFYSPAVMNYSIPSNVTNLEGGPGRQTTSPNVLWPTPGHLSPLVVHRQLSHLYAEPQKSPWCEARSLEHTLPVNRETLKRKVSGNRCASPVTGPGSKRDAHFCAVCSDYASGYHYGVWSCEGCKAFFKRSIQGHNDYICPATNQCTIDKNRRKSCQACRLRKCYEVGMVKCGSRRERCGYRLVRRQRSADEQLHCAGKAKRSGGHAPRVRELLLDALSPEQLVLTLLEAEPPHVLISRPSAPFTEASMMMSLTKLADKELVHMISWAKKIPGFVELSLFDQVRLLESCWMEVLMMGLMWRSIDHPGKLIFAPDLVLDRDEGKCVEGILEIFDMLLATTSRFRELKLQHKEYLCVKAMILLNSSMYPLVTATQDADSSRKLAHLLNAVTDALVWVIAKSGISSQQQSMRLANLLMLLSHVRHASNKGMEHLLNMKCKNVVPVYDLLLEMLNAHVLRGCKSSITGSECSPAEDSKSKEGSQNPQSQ

[2] = target: T1, ERβ; experiment: Estrogen ERβ competitive radioligand binding with [3H]estradiol; parameters: made in house; host or cells: insect Sf9 cells
Method: IC50 values were determined by non-linear least squares regression analysis. […] The Hill coefficient (nH) defines the slope of the competitive binding curve and was determined using MathIQ™ (ID Business Solutions Ltd., UK).
Estrogen ERβ • Source: Human recombinant insect Sf9 cells
Target sequence in this assay (Q92731 264-498 limits assumed): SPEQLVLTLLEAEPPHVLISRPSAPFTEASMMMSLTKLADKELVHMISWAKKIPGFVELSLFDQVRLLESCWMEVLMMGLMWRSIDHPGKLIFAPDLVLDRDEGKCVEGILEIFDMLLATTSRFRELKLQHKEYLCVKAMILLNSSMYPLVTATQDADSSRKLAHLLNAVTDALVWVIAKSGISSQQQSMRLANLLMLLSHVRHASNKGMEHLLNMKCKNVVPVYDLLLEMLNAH

[3] = target: T1, ERβ; conditions: reference compound, Estrogen ERβ; cited from earlier work
Target sequence in this assay (Q92731 264-498 limits assumed): as above

[4] = Bone calcium in female pigs after 180 days daily oral dosing; assay type: in vivo
Method: Active agents or placebo were administered after heat (estrus) in the luteal phase. […] All treatment groups received daily oral administration of the appropriate capsule(s) for 180 days. Daily general health observations and weekly body weight measurements were conducted for all groups. Following the 6 month administration period, calcium (parts per million (ppm) dry weight (dw)) was determined in rib and femur bone samples from pigs in each treatment group: […]

[5] = Co-administration of Proellex and Androxal in cycling female baboons, 180 days daily oral; assay type: in vivo; conditions: daily oral 180 days, Androxal 25 mg
Method: All treatment groups received daily oral administration of the appropriate capsule(s) for 180 days. Daily oral dosing was started in the luteal phase. […] Daily observations of estrus (heat) were conducted for all groups.

[6] = third of three separate radioligand binding studies, read-out: Receptor Binding ERβ IC50

CCNCCOc1ccc(/C(=C(/Cl)c2ccccc2)c2ccc(O)cc2)cc1 [4-OH-N-Desethyl enclomiphene, (E)-4-OH-desethyl Clomiphene]
ERβ Coactivator Response Ant (antagonist) ([1]; second of two separate studies): 104% | IC50 [2, 6]: 0.45 nM

CCN(CC)CCOc1ccc(/C(=C(/Cl)c2ccccc2)c2ccc(O)cc2)cc1 [4-OH-enclomiphene, (E)-4-OH-Clomiphene]
ERβ Coactivator Response Ant (antagonist) ([1]; first of two separate studies): 60% | nH (Hill coefficient) ([2]; ERβ, hum): 1.56 | % Inh. ([2]; ERβ, hum, Conc. 0.9 nM): 67% | Ki ([2]; ERβ, hum, Cheng-Prusoff): 0.12 nM | IC50 ([2]; ERβ, hum, additional data, read-out: IC50): 0.57 nM | ligand preference ERα versus ERβ ([2]; based on binding and co-activator studies): better ligand for ERβ | IC50 ([2]; first of three separate radioligand binding studies, read-out: Receptor Binding ERβ IC50): 0.57 nM | IC50 ([2]; second of three separate radioligand binding studies, read-out: Receptor Binding ERβ IC50): 0.41 nM

NCCOc1ccc(/C(=C(/Cl)c2ccccc2)c2ccccc2)cc1 [Di-de-ethyl-enclomiphene, (E)-di-desethyl Clomiphene]
ERβ Coactivator Response Ant (antagonist) ([1]; first of two separate studies): 87%

CC/C(=C(/CC)c1ccc(O)cc1)c1ccc(O)cc1 [Diethylstilbestrol]
Historical nH [3]: 1.20

CCN(CC)CCOc1ccc(/C(=C(/Cl)c2ccccc2)c2ccccc2)cc1 [Enclomiphene, trans-clomiphene]
ERβ Coactivator Response Ant (antagonist) ([1]; first of two separate studies): 65% | effect on calcium content of bone ([4]; female pigs, daily oral 180 days): did not affect the calcium content of bone | Ca (ppm dw), Mean ([4]; rib and femur bone samples, female pigs n = 3, daily oral 180 days, Proellex 12 mg, Androxal 25 mg): 139300.00 ppm dw | cycling [5]: prevented cycling | cycling of vaginal bleeding ([5]; Proellex 12 mg): stopped | swelling (turgesence) of the tissue around the tail under the control of estrogen ([5]; Proellex 12 mg): inhibited the swelling

CC[N+]([O-])(CC)CCOc1ccc(/C(=C(/Cl)c2ccccc2)c2ccccc2)cc1 [Enclomiphene-NO, (E)-Clomiphene-NO]
ERβ Coactivator Response Ant (antagonist) ([1]; first of two separate studies): 95%

CCNCCOc1ccc(/C(=C(/Cl)c2ccccc2)c2ccccc2)cc1 [N-Desethyl enclomiphene, (E)-desethyl Clomiphene]
ERβ Coactivator Response Ant (antagonist) ([1]; second of two separate studies): 74% | IC50 [2, 6]: 1.13 nM

COCC(=O)[C@@]1(OC(C)=O)CC[C@H]2[C@@H]3CCC4=CC(=O)CCC4=C3[C@@H](c3ccc(N(C)C)cc3)C[C@@]21C [Proellex, 21-methoxy-17α-acetoxy-11β-(4 N, N-dimethylaminophenyl)-19-norpregna-4,9-diene-3,20-dione]
effect on calcium content of bone ([4]; pig, in vivo, po): did not affect the calcium content of bone | cycling of vaginal bleeding ([5]; Proellex 12 mg): stopped | endometrial thickness ([5]; Proellex 12 mg): increase in endometrial thickness | swelling (turgesence) of the tissue around the tail under the control of estrogen ([5]; Proellex 12 mg): not proellex alone inhibited the swelling
